Details: for log10 BCF / log10 biotransformation half-life (days): fish

Structure (SMILES)	boiling point [°C]	melting point [°C]	further results
Nc1ccccc1Nc1ccccc1	313	79.5	–
C#CCCC(C)C	92	-125	–
CCCOC(=O)NCCCN(C)C	–	–	log10 Henry constant (atm·m³/mol): -8.83; log10 Koc (L/kg): 2.49; log10 vapour pressure (mmHg): -1.26
FC(F)(F)C(F)(F)C(Cl)(Cl)Cl	74	-80	–
Clc1cc(Cl)c2cc(Cl)ccc2c1	–	–	log10 BCF: 4.43
O=C(O)COc1ccc(Cl)cc1Cl	–	140	log10 Koc (L/kg): 1.66; log10 vapour pressure (mmHg): -4.08; ready biodegradability: not readily biodegradable
C[C@@H]1CCC[C@H](C)N1	127	–	ready biodegradability: not readily biodegradable; log10 BCF: 0.7
CC(=O)Nc1ccc(C=O)cc1	–	157	–
Cc1cc(C)n(-c2ccccc2)n1	273	–	–
CC(C)=CCN1CC[C@@]2(C)c3cc(O)ccc3C[C@@H]1[C@@H]2C	–	146	–
C[C@]12CC[C@@H](O)C[C@@H]1CC[C@@H]1[C@@H]2CC[C@]2(C)C(=O)CC[C@@H]12	–	182	–
CCS(=O)(=O)Cl	174	–	–
C=CC(=O)OCCCC	145	-64.6	log10 vapour pressure (mmHg): 0.737; ready biodegradability: readily biodegradable
COC(=O)c1ccccc1S(=O)(=O)NC(=O)Nc1nc(OC(F)F)cc(OC(F)F)n1	–	196	log10 Koc (L/kg): 1.08
C=CCCCCCCCCCO	250	-2	–
CCSCC[C@H](N)C(=O)O	–	195	–
O=Cc1ccccc1O[C@@H]1O[C@H](CO)[C@@H](O)[C@H](O)[C@H]1O	–	175	–
C[Si](Cl)(Cl)C(Cl)Cl	149	–	–
FC1=C(F)C(F)(F)C1(F)F	5.5	-60	–
N[C@@H](CCC(=O)O)C(=O)O	–	–	log10 vapour pressure (mmHg): -7.77; ready biodegradability: readily biodegradable
Nc1ncnc(Nc2ccc(Cl)cc2)n1	–	234	–
CCN(CC)CCNC(=O)c1cc(S(C)(=O)=O)ccc1OC	–	124	–
O=C(O)c1cc(Br)ccc1Br	–	157	–
CCCCCCO[N+](=O)[O-]	171	–	log10 Henry constant (atm·m³/mol): -2.83; log10 vapour pressure (mmHg): 0.199
CC(S)C(=O)NCC(=O)O (configuration not stated)	–	96	–

Structure (SMILES)	boiling point [°C]	melting point [°C]	further results
OC[C@@H](O)[C@@H](O)[C@H](O)[C@@H](O)CO	–	–	ready biodegradability: readily biodegradable
CCC(C)(C)C(=O)O[C@H]1C[C@@H](C)C=C2C=C[C@H](C)[C@H](CC[C@@H]3C[C@@H](O)CC(=O)O3)[C@H]21	–	136	–
CNC(=O)ON=CC(C)(C)SC	–	99	log10 Koc (L/kg): 1.5; log10 vapour pressure (mmHg): -4.46
N=CN	–	81	–
COc1ccc2c(c1)CC[C@@H]1[C@@H]2CC[C@]2(C)C(=O)[C@H](Cl)C[C@@H]12	–	180	–
Cc1ccc(C(=O)c2ccccc2)c(C)c1	322	–	–
CCOC(=O)C(C#N)=Cc1ccccc1	–	51	–
c1ccccc1	80	–	log10 Henry constant (atm·m³/mol): -2.26; log10 Koa: 2.78; log10 Koc (L/kg): 1.75; log10 biodegradation half-life (days): 0.778; log10 vapour pressure (mmHg): 1.98; ready biodegradability: readily biodegradable; log10 BCF: 0.63
C1CCCC1	49.3	-93.8	log10 Henry constant (atm·m³/mol): -0.818; log10 biodegradation half-life (days): 1.7; log10 vapour pressure (mmHg): 2.5
FC(F)=C(Cl)C(F)(F)F	6.8	-130	–
Cc1ccc(Cl)c(O)c1	213	50.8	ready biodegradability: not readily biodegradable; log10 BCF: 0.67
CCCCCOC(=O)CCC(=O)OCCCCC	–	-10.8	–
CCOC(=O)NCc1ccccc1	230	49	–
Cc1occc1C(=O)Nc1ccccc1	–	110	log10 Koc (L/kg): 2.48; log10 vapour pressure (mmHg): -6.82
O=C(NC(=O)c1ccccc1Cl)Nc1ccc(OC(F)(F)F)cc1	–	195	log10 vapour pressure (mmHg): -9.52
C#CCCCCCCCCCCCCCC	284	15	–
CC1=CCOCC1	118	–	–
CCCCC(C)CCCC	165	-87.7	–
CCOC(=O)[C@@H](C)Oc1ccc(Oc2nc3ccc(Cl)cc3o2)cc1	–	–	log10 vapour pressure (mmHg): -7.52
NC(=O)Nc1ccccc1Cl	–	–	log10 Koc (L/kg): 1.61
CCCCNc1cc(C(=O)O)cc(S(N)(=O)=O)c1Oc1ccccc1	–	230	–
CC(C)COCOCC(C)C	166	–	–
CC(C)C1=CC[C@H]2C(=C1)CC[C@@H]1[C@]2(C)CCC[C@@]1(C)C(=O)O	–	150	–
C1CN1P1(N2CC2)=NP(N2CC2)(N2CC2)=NP(N2CC2)(N2CC2)=N1	–	148	–
C=O	-19.1	–	log10 Henry constant (atm·m³/mol): -6.47; ready biodegradability: readily biodegradable

Structure (SMILES)	boiling point [°C]	melting point [°C]	further results
O=C(Nc1ccc(Cl)cc1)c1cc(Br)ccc1O	–	240	–
CC(C)NCCCC1(C(N)=O)c2ccccc2-c2ccccc21	–	94.5	–
Fc1cc(F)c(F)c(F)c1F	85.7	-47.3	log10 vapour pressure (mmHg): 1.83
CC(C)[C@H](C(=O)OC(C#N)c1cccc(Oc2ccccc2)c1)c1ccc(OC(F)F)cc1 (some centres not stated)	–	–	log10 Koc (L/kg): 5; log10 vapour pressure (mmHg): -8.06
C/C=C\C	2.25	-122	log10 Henry constant (atm·m³/mol): -0.643
CCO[Si](C)(C)OCC	114	-87	log10 vapour pressure (mmHg): 1.3
CC1(O)CCCCCC1	184	–	–
COC(C)(C)CCOC(C)=O	–	–	ready biodegradability: readily biodegradable
CCCCc1cc2ccccc2c(OCCN(C)C)n1	–	146	–
O=C(O)c1c(F)cccc1Cl	–	160	–
NS(=O)(=O)c1ccc(S(=O)(=O)CCO)c(F)c1	–	165	–
NCC(F)(F)C(F)(F)F	49	–	–
CCCCOS(=O)(=O)OCCCC	–	–	log10 vapour pressure (mmHg): -1.93
NC(=O)c1c(F)cccc1F	–	146	–
Clc1ccc(Cc2ccccc2)cc1	299	7.5	–
CN(C)c1ccc(CO)cc1	–	69	–
CCCCB(CCCC)CCCC	209	–	–
O=C(Cl)c1cccc(Cl)c1	225	–	log10 vapour pressure (mmHg): -0.854
CCC(S)CC	105	-111	–
S=C(S)NCCNC(=S)S	–	–	ready biodegradability: not readily biodegradable
O=C(Nc1ccccc1)Nc1cnns1	–	–	log10 Koc (L/kg): 2.04; log10 vapour pressure (mmHg): -10.6
C=CCC	-6.2	-185	log10 Henry constant (atm·m³/mol): -0.633; log10 vapour pressure (mmHg): 3.35
Cn1cccc1-c1cccnc1	281	–	–
Nc1ccc2cc(S(=O)(=O)O)cc(S(=O)(=O)O)c2c1	–	274	–
CCCCC1CCCC1	157	-108	log10 vapour pressure (mmHg): 0.602

Structure (SMILES)	boiling point [°C]	melting point [°C]	further results
Brc1cc(Br)c(Oc2cc(Br)c(Br)cc2Br)cc1Br	–	–	logP: 7.9; log10 BCF: 6.13
CCC(CC)CC(C)(C)C	147	–	–
FC(I)I	100	-34.5	–
N#Cc1ccc2ccccc2n1	–	95	–
N#CCCCl	176	-51	–
C=CC1CC2C=CC1C2 (configuration not stated)	140	-80	log10 vapour pressure (mmHg): 0.992
NCC(=O)O	–	–	ready biodegradability: readily biodegradable
CCCCCC1C(=O)CCC1CC(=O)OC (configuration not stated)	–	-10	ready biodegradability: readily biodegradable
Nc1ccc2c(c1)Cc1cc(N)ccc1-2	–	166	–
Clc1ccc(CSc2ccc(Cl)cc2)cc1	–	75	–
O=c1c(O)c(O)c(=O)c1=O	–	150	–
Brc1ccc(Oc2ccc(Br)cc2Br)c(Br)c1	–	–	log10 Koa: 10.5; log10 vapour pressure (mmHg): -7.15; logP: 6.81; log10 BCF: 5.84; log10 biotransformation half-life (days): 1.6
Cc1cc2cccc(CCCC(C)C)c2cc1C	–	–	log10 biotransformation half-life (days): 0.06
Clc1cccc(-c2c(Cl)c(Cl)c(Cl)c(Cl)c2Cl)c1	–	–	log10 Henry constant (atm·m³/mol): -4.7
CC(C)OC(=O)OOC(=O)OC(C)C	–	10	–
OC(c1ccc(F)cc1)(c1cncnc1)c1ccccc1Cl (configuration not stated)	–	126	–
CN(C)CC(O)CN(C)C	182	–	–
COc1cccc(OC)c1C#N	310	119	–
CC(C)CCO	131	–	log10 Henry constant (atm·m³/mol): -4.85; log10 Koa: 4.52; log10 vapour pressure (mmHg): 0.375; ready biodegradability: readily biodegradable
CC(C)CCCCCCO	206	64.5	–
CCCC(=O)Nc1c(I)cc(I)c(CC(CC)C(=O)[O-])c1I.[Na+] (configuration not stated)	–	209	–
CCn1cccc1	130	–	–
C[N+]1(CCC(C(N)=O)(c2ccccc2)c2ccccc2)CCCCC1.[Br-]	–	178	–
CC[C@](C)(N)C(=O)O (racemic)	–	316	–
O=CC=Cc1ccccc1	246	-7.5	log10 vapour pressure (mmHg): -1.54

Structure (SMILES)	boiling point [°C]	melting point [°C]	further results
CC(C)=CCCC=C(C)C	166	-74.4	–
Cc1ccccc1Oc1ccccc1	264	21.7	–
CCC[C@@H](C)S	113	-169	–
O=C1CCc2cc(OCCCCc3nnnn3C3CCCCC3)ccc2N1	–	160	–
CCC(C(N)=O)n1nnc2ccccc21 (configuration not stated)	–	143	–
C=C(C)C1CC=C(CO)CC1 (configuration not stated)	244	–	–
c1ccc(-c2cccc(-c3ccccn3)n2)nc1	–	90	–
CC1=CC(=O)C[C@H](C)C1	208	–	–
O=[N+]([O-])O[C@H]1CO[C@H]2[C@@H]1OC[C@H]2O[N+](=O)[O-]	–	70	–
Clc1cc(Cl)c2ccccc2c1	291	62.3	–
c1ccc(-c2ccccc2-c2ccccc2)cc1	332	56.2	log10 vapour pressure (mmHg): -3.6; log10 BCF: 3.48; log10 biotransformation half-life (days): 0.86
C=CCI	103	-99.3	–
O=C(Cl)Cc1ccccc1	–	–	log10 vapour pressure (mmHg): -0.702
N#Cc1cc(Cl)ccc1N	–	97	–
CCCCP(=O)(CCCC)CCCC	–	64	–
C#CCCCC#C	112	-85	–
S=C(NC1CCCCC1)NC1CCCCC1	–	–	ready biodegradability: not readily biodegradable; log10 BCF: 0.64
COc1cc(O)ccc1O	–	90	–
O=[N+]([O-])c1ccc(-c2ccccc2)cc1	340	114	–
CCCCCCCCCCCCCCCCCCN(C)C	–	22.9	–
N#Cc1ccc(O)cc1	–	112	ready biodegradability: not readily biodegradable; log10 BCF: 0.91
CN(C)CCOCCN(C)C	–	–	ready biodegradability: not readily biodegradable
C=C(Cl)C(=O)O	–	66	–
CC1(C)CCC(=Cc2ccc(Cl)cc2)C1(O)Cn1cncn1 (configuration not stated)	–	140	–
CCCCc1ccc2cc(C)c(C)cc2c1	–	–	log10 biotransformation half-life (days): 0.24

From the OPERA property sets (Mansouri et al. 2018)
